Test results published in patent US10738028B2, “Spiro three-membered ring, spiro five-membered ring peptide deformylase inhibitor and use thereof in antibacteria and anti-tumor” (priority 2016, dated 2020).
Like-named read-outs stand apart in the source and are kept apart here.

Experiments:
Assay type in all cases: cell-based
[1] = system: A549 lung cancer cell line; test: CCK-8 proliferation inhibition; settings: Homo sapiens, A549, 72 h, concentration of 30 μM
Procedure, shortened: (§1)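 Plating at 2000 cells/well, then incubation overnight at 37° C. Next, a range of compound concentrations for 72 hours (control 1‰ DMSO). Finally, medium decanted and CCK-8 diluted 1:10 added.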

[2] = system: MGC-803 gastric cancer cell line; test: CCK-8 proliferation inhibition; settings: Homo sapiens, MGC-803, 72 h, concentration of 30 μM
Procedure, shortened: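 Proliferation was measured with 1:10 diluted CCK-8 after a 72-hour incubation with the inhibitors at various final concentrations, using 1‰ DMSO as the control. Cells were plated at 2000 per well. Culture media contained 10% newborn bovine serum: 1640 for Jurkat and MGC-803, F12 for PC3, DMEM high glucose for MCF-7.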

[3] = system: BEL-7402 liver cancer cell line; test: CCK-8 proliferation inhibition; settings: Homo sapiens, Bel-7402, 72 h, concentration of 30 μM
Procedure, shortened: as §1

[4] = system: HCT-116 colorectal cancer cell line; test: CCK-8 proliferation inhibition; settings: Homo sapiens, HCT-116, 72 h, concentration of 30 μM, 72 hours, CCK-8
Procedure, shortened: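 Cells were plated overnight at 2000 cells/well, then compound in culture medium was added at a range of final concentrations. After 72 hours in a CO2 incubator, medium was replaced with 1:10 CCK-8 solution for the read-out.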

[5] = system: methicillin-resistant Staphylococcus aureus (MRSA); test: MIC, two-fold agar dilution (CLSI), clinical isolates
Procedure, shortened: (§2)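 CLSI two-fold agar dilution; MIC of test samples read per tested strain.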

[6] = system: methicillin-resistant Staphylococcus epidermidis (MRSE); test: as above
Procedure, shortened: as §2

[7] = system: Enterococcus faecalis (EFA); test: as above
Procedure, shortened: as §2

[8] = system: Streptococcus pneoumoniae (SPN); test: as above
Procedure, shortened: as §2

[9] = system: Escherichia coli (including ESBLs, non-ESBLs); test: as above
Procedure, shortened: as §2

[10] = system: Moraxella catarrhalis (BCA); test: as above
Procedure, shortened: as §2

[11] = system: methicillin-sensitive Staphylococcus aureus (MSSA); test: as above
Procedure, shortened: as §2

[12] = system: methicillin-sensitive Staphylococcus epidermidis (MSSE); test: as above
Procedure, shortened: as §2

[13] = system: Enterococcus faecium (EFM); test: as above
Procedure, shortened: as §2

O=C(C[C@@H](CC1CCCC1)C(=O)N1CC2(CC2)C[C@H]1C(=O)Nc1ccc(N2CCOCC2)cc1)NO [Example 61]
≥ 30%: inhibition at 30 µM ([4]; Table 5, read-out: Inhibition of proliferation, Colorectal cancer HCT116)
8 µg/mL: Anti-bacterial activity (MIC), strain EFA 15-9 ([7]; clinical isolate EFA 15-9) | Anti-bacterial activity (MIC), strain BCA 14-1 ([10]; clinical isolate BCA 14-1) | Anti-bacterial activity (MIC), strain BCA 14-4 ([10]; clinical isolate BCA 14-4) | Anti-bacterial activity (MIC), strain BCA 14-7 ([10]; clinical isolate BCA 14-7) | Anti-bacterial activity (MIC), strain BCA 14-8 ([10]; clinical isolate BCA 14-8) | Anti-bacterial activity (MIC), strain BCA 14-10 ([10]; clinical isolate BCA 14-10)
32 µg/mL: Anti-bacterial activity (MIC), strain MSSE 15-6 ([12]; clinical isolate MSSE 15-6)
50%: inhibition at 30 µM [3]
> 32 µg/mL: Anti-bacterial activity (MIC), strain EFA 15-1 ([7]; clinical isolate EFA 15-1) | Anti-bacterial activity (MIC), strain EFA 15-2 ([7]; clinical isolate EFA 15-2) | Anti-bacterial activity (MIC), strain EFA 15-3 ([7]; clinical isolate EFA 15-3) | Anti-bacterial activity (MIC), strain EFA 15-4 ([7]; clinical isolate EFA 15-4) | Anti-bacterial activity (MIC), strain EFA 15-5 ([7]; clinical isolate EFA 15-5) | Anti-bacterial activity (MIC), strain EFA 15-6 ([7]; clinical isolate EFA 15-6) | Anti-bacterial activity (MIC), strain ECO+ 15-1 ([9]; clinical isolate ECO+ 15-1) | Anti-bacterial activity (MIC), strain ECO+ 15-2 ([9]; clinical isolate ECO+ 15-2) | Anti-bacterial activity (MIC), strain ECO− 15-1 ([9]; clinical isolate ECO− 15-1) | Anti-bacterial activity (MIC), strain ECO− 15-2 ([9]; clinical isolate ECO− 15-2) | Anti-bacterial activity (MIC), strain ECO− 15-3 ([9]; clinical isolate ECO− 15-3) | Anti-bacterial activity (MIC), strain ECO− 15-4 ([9]; clinical isolate ECO− 15-4) | Anti-bacterial activity (MIC), strain MSSA 15-5 ([11]; clinical isolate MSSA 15-5) | Anti-bacterial activity (MIC), strain EFM 15-1 ([13]; clinical isolate EFM 15-1) | Anti-bacterial activity (MIC), strain EFM 15-2 ([13]; clinical isolate EFM 15-2) | Anti-bacterial activity (MIC), strain EFM 15-3 ([13]; clinical isolate EFM 15-3) | Anti-bacterial activity (MIC), strain EFM 15-4 ([13]; clinical isolate EFM 15-4)
35%: inhibition at 30 µM ([4]; read-out: HCT116 inhibition rate/%)
2 µg/mL: Anti-bacterial activity (MIC), strain SPN 16-2 ([8]; clinical isolate SPN 16-2) | Anti-bacterial activity (MIC), strain SPN 16-4 ([8]; clinical isolate SPN 16-4)
10%: inhibition at 30 µM [1]
1 µg/mL: Anti-bacterial activity (MIC), strain MRSA 15-1 ([5]; clinical isolate MRSA 15-1) | Anti-bacterial activity (MIC), strain MRSA 15-2 ([5]; clinical isolate MRSA 15-2) | Anti-bacterial activity (MIC), strain MRSA 15-3 ([5]; clinical isolate MRSA 15-3) | Anti-bacterial activity (MIC), strain MRSA 15-4 ([5]; clinical isolate MRSA 15-4) | Anti-bacterial activity (MIC), strain MRSE 15-1 ([6]; clinical isolate MRSE 15-1) | Anti-bacterial activity (MIC), strain MRSE 15-2 ([6]; clinical isolate MRSE 15-2) | Anti-bacterial activity (MIC), strain MRSE 15-3 ([6]; clinical isolate MRSE 15-3) | Anti-bacterial activity (MIC), strain MRSE 15-7 ([6]; clinical isolate MRSE 15-7) | Anti-bacterial activity (MIC), strain ECO+ 15-3 ([9]; clinical isolate ECO+ 15-3) | Anti-bacterial activity (MIC), strain ECO+ 15-4 ([9]; clinical isolate ECO+ 15-4) | Anti-bacterial activity (MIC), strain BCA 14-5 ([10]; clinical isolate BCA 14-5) | Anti-bacterial activity (MIC), strain BCA 14-6 ([10]; clinical isolate BCA 14-6) | Anti-bacterial activity (MIC), strain MSSA 15-3 ([11]; clinical isolate MSSA 15-3) | Anti-bacterial activity (MIC), strain MSSA 15-4 ([11]; clinical isolate MSSA 15-4) | Anti-bacterial activity (MIC), strain MSSA 15-6 ([11]; clinical isolate MSSA 15-6) | Anti-bacterial activity (MIC), strain MSSE 15-3 ([12]; clinical isolate MSSE 15-3) | Anti-bacterial activity (MIC), strain MSSE 15-4 ([12]; clinical isolate MSSE 15-4) | Anti-bacterial activity (MIC), strain MSSE 15-5 ([12]; clinical isolate MSSE 15-5) | Anti-bacterial activity (MIC), strain EFM 15-6 ([13]; clinical isolate EFM 15-6)
31%: inhibition at 30 µM [2]
